Reference: the NIST ThermoML archive (doi:10.1016/j.fluid.2019.05.015)
± gives the expanded uncertainty stated by the source.

Legend:
[1] = mean ionic activity coefficient (dimensionless); mn = molality of the nth substance listed, in mol/kg; details: 100 kPa, Liquid, Electrochemical cell potential
[2] = refractive index (Na D-line) (dimensionless); xn = mol fraction of the nth substance listed; details: 100 kPa, Liquid, Standard Abbe refractometry

CCn1cc[n+](C)c1.[Br-] [1-ethyl-3-methylimidazolium bromide] + O
mean ionic activity coefficient ([1]; 298.2 K, m1 = 0.021): 0.8957 ± 0.005
mean ionic activity coefficient ([1]; 298.2 K, m1 = 0.0419): 0.748 ± 0.0051
mean ionic activity coefficient ([1]; 298.2 K, m1 = 0.0585): 0.7149 ± 0.0052
mean ionic activity coefficient ([1]; 298.2 K, m1 = 0.0791): 0.6998 ± 0.005
mean ionic activity coefficient ([1]; 298.2 K, m1 = 0.0995): 0.6908 ± 0.0049
mean ionic activity coefficient ([1]; 298.2 K, m1 = 0.2548): 0.5703 ± 0.0048
mean ionic activity coefficient ([1]; 298.2 K, m1 = 0.4968): 0.4953 ± 0.0048
mean ionic activity coefficient ([1]; 298.2 K, m1 = 0.7334): 0.45 ± 0.0048
mean ionic activity coefficient ([1]; 298.2 K, m1 = 1.003): 0.397 ± 0.0048
mean ionic activity coefficient ([1]; 298.2 K, m1 = 1.244): 0.378 ± 0.0048
mean ionic activity coefficient ([1]; 298.2 K, m1 = 1.489): 0.361 ± 0.0048
mean ionic activity coefficient ([1]; 308.2 K, m1 = 0.0211): 0.8798 ± 0.0044
mean ionic activity coefficient ([1]; 308.2 K, m1 = 0.042): 0.8527 ± 0.0045
mean ionic activity coefficient ([1]; 308.2 K, m1 = 0.0586): 0.8229 ± 0.0045
mean ionic activity coefficient ([1]; 308.2 K, m1 = 0.0793): 0.769 ± 0.0045
mean ionic activity coefficient ([1]; 308.2 K, m1 = 0.0999): 0.7385 ± 0.0045
mean ionic activity coefficient ([1]; 308.2 K, m1 = 0.2555): 0.6299 ± 0.0045
mean ionic activity coefficient ([1]; 308.2 K, m1 = 0.4948): 0.5249 ± 0.0044
mean ionic activity coefficient ([1]; 308.2 K, m1 = 0.7324): 0.4686 ± 0.0044
mean ionic activity coefficient ([1]; 308.2 K, m1 = 1.003): 0.42 ± 0.0044
mean ionic activity coefficient ([1]; 308.2 K, m1 = 1.245): 0.39 ± 0.0044
mean ionic activity coefficient ([1]; 308.2 K, m1 = 1.489): 0.375 ± 0.0044
mean ionic activity coefficient ([1]; 308.2 K, m1 = 1.744): 0.363 ± 0.0044
mean ionic activity coefficient ([1]; 308.2 K, m1 = 1.995): 0.346 ± 0.0044
mean ionic activity coefficient ([1]; 308.2 K, m1 = 2.251): 0.322 ± 0.0044
mean ionic activity coefficient ([1]; 308.2 K, m1 = 2.499): 0.307 ± 0.0044
mean ionic activity coefficient ([1]; 318.2 K, m1 = 0.0093): 0.8999 ± 0.0044
mean ionic activity coefficient ([1]; 318.2 K, m1 = 0.0187): 0.8927 ± 0.0044
mean ionic activity coefficient ([1]; 318.2 K, m1 = 0.0418): 0.8287 ± 0.0044
mean ionic activity coefficient ([1]; 318.2 K, m1 = 0.0603): 0.7921 ± 0.0044
mean ionic activity coefficient ([1]; 318.2 K, m1 = 0.0786): 0.7691 ± 0.0044
mean ionic activity coefficient ([1]; 318.2 K, m1 = 0.1014): 0.7508 ± 0.0044
mean ionic activity coefficient ([1]; 318.2 K, m1 = 0.2568): 0.6434 ± 0.0044
mean ionic activity coefficient ([1]; 318.2 K, m1 = 0.4956): 0.5317 ± 0.0044
mean ionic activity coefficient ([1]; 318.2 K, m1 = 0.7332): 0.4709 ± 0.0044
mean ionic activity coefficient ([1]; 318.2 K, m1 = 1.003): 0.423 ± 0.0044
mean ionic activity coefficient ([1]; 318.2 K, m1 = 1.244): 0.399 ± 0.0044
mean ionic activity coefficient ([1]; 318.2 K, m1 = 1.487): 0.385 ± 0.0044
mean ionic activity coefficient ([1]; 318.2 K, m1 = 1.743): 0.366 ± 0.0044
mean ionic activity coefficient ([1]; 318.2 K, m1 = 1.995): 0.344 ± 0.0044
mean ionic activity coefficient ([1]; 318.2 K, m1 = 2.251): 0.33 ± 0.0044
mean ionic activity coefficient ([1]; 318.2 K, m1 = 2.5): 0.32 ± 0.0044
refractive index ([2]; 298.2 K, x2 = 0.0971): 1.549 ± 0.0006
refractive index ([2]; 298.2 K, x2 = 0.188): 1.545 ± 0.0006
refractive index ([2]; 298.2 K, x2 = 0.2981): 1.536 ± 0.0006
refractive index ([2]; 298.2 K, x2 = 0.3857): 1.5335 ± 0.0006
refractive index ([2]; 298.2 K, x2 = 0.471): 1.525 ± 0.0005
refractive index ([2]; 298.2 K, x2 = 0.5966): 1.5115 ± 0.0005
refractive index ([2]; 298.2 K, x2 = 0.6884): 1.4985 ± 0.0005
refractive index ([2]; 298.2 K, x2 = 0.7863): 1.4625 ± 0.0005
refractive index ([2]; 298.2 K, x2 = 0.8884): 1.4305 ± 0.0005
refractive index ([2]; 308.2 K, x2 = 0.0926): 1.5455 ± 0.0006
refractive index ([2]; 308.2 K, x2 = 0.1801): 1.5425 ± 0.0006
refractive index ([2]; 308.2 K, x2 = 0.2947): 1.534 ± 0.0006
refractive index ([2]; 308.2 K, x2 = 0.3829): 1.53 ± 0.0006
refractive index ([2]; 308.2 K, x2 = 0.4714): 1.5235 ± 0.0005
refractive index ([2]; 308.2 K, x2 = 0.5983): 1.509 ± 0.0005
refractive index ([2]; 308.2 K, x2 = 0.6871): 1.4955 ± 0.0005
refractive index ([2]; 308.2 K, x2 = 0.7851): 1.4595 ± 0.0005
refractive index ([2]; 308.2 K, x2 = 0.888): 1.427 ± 0.0005
refractive index ([2]; 318.2 K, x2 = 0.0923): 1.5425 ± 0.0006
refractive index ([2]; 318.2 K, x2 = 0.1796): 1.54 ± 0.0006
refractive index ([2]; 318.2 K, x2 = 0.2939): 1.531 ± 0.0006
refractive index ([2]; 318.2 K, x2 = 0.382): 1.5265 ± 0.0006
refractive index ([2]; 318.2 K, x2 = 0.4704): 1.521 ± 0.0005
refractive index ([2]; 318.2 K, x2 = 0.5974): 1.5065 ± 0.0005
refractive index ([2]; 318.2 K, x2 = 0.6862): 1.4925 ± 0.0005
refractive index ([2]; 318.2 K, x2 = 0.7844): 1.458 ± 0.0005
refractive index ([2]; 318.2 K, x2 = 0.8876): 1.425 ± 0.0005
